From patent WO2016116777A1, “Compositions and methods for treatment of chronic lymphocytic leukemia and small lymphocytic leukemia using a btk inhibitor” (dated 2016)
Entries after “also recorded” stand apart in the source; their conditions may differ.

Columns and labels:
[1] = test system: NK cells; conditions: cited from earlier work
[2] = test system: regulatory T cell (Treg); assay: Effect on Treg development
[3] = test system: cytochrome P450 (CYP) enzymes 3A4/5 and 2D6; conditions: cited from earlier work
[4] = test system: B cell receptor; assay: In vitro potency in whole blood, inhibition of signals through the B cell receptor (CD69); format: cell-based; conditions: whole blood from four healthy donors, 2 hours incubation, anti-human IgD 18 hours, read-out: EC50, CD69 on gated CD19+ B cells
[5] = test system: Th17 cells; assay: Effect on Th17 cells
[6] = test system: platelet collagen receptor glycoprotein VI (GPVI); assay: GPVI platelet aggregation; format: cell-based, human
[7] = molecular target: epidermal growth factor receptor (EGFR) (Homo sapiens, UniProt P00533); conditions: in vitro; cited from earlier work
[8] = test system: CD8+ T cell; assay: Effect on CD8+ T cell viability
[9] = test system: NK cells (CD56+/CD107a+) with MEC-1 cells; assay: NK cell degranulation/ADCC whole blood assay with obinutuzumab-opsonised MEC-1 cells; format: cell-based, human; conditions: 0.1, 1 and 10 μM, MEC-1 opsonised with obinutuzumab 1 μg/mL, 4 hours
[10] = molecular target: T1, interleukin-2 inducible tyrosine kinase (ITK) (Homo sapiens, UniProt Q08881); conditions: cited from earlier work
T1 sequence (Q08881 1-620): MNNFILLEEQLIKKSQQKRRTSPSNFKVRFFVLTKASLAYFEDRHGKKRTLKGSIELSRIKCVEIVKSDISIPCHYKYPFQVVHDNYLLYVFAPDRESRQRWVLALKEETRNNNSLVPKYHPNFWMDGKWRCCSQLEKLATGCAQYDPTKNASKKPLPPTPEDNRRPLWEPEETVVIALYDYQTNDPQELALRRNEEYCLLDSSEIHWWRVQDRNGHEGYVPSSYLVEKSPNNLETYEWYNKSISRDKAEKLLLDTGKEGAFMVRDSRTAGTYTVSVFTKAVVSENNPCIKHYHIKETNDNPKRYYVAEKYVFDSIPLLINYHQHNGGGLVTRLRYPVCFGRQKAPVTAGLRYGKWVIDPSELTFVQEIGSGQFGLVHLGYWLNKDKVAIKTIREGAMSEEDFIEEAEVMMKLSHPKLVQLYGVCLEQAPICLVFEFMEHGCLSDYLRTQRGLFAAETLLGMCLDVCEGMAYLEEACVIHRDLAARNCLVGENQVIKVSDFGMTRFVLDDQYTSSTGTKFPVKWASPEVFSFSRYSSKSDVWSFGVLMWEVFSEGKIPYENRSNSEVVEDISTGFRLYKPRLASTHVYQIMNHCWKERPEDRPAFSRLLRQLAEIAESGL

[11] = test system: CLL; conditions: cited from earlier work
[12] = test system: human platelet-mediated thrombosis; assay: In vivo human platelet thrombus formation in VWF HA1 mutant mice (laser injury)
[13] = Phase 1, previously treated CLL, monotherapy
[14] = Phase 1 portion, relapsed/refractory CLL, n=13

Sequence of epidermal growth factor receptor (EGFR) (P00533 25-1210): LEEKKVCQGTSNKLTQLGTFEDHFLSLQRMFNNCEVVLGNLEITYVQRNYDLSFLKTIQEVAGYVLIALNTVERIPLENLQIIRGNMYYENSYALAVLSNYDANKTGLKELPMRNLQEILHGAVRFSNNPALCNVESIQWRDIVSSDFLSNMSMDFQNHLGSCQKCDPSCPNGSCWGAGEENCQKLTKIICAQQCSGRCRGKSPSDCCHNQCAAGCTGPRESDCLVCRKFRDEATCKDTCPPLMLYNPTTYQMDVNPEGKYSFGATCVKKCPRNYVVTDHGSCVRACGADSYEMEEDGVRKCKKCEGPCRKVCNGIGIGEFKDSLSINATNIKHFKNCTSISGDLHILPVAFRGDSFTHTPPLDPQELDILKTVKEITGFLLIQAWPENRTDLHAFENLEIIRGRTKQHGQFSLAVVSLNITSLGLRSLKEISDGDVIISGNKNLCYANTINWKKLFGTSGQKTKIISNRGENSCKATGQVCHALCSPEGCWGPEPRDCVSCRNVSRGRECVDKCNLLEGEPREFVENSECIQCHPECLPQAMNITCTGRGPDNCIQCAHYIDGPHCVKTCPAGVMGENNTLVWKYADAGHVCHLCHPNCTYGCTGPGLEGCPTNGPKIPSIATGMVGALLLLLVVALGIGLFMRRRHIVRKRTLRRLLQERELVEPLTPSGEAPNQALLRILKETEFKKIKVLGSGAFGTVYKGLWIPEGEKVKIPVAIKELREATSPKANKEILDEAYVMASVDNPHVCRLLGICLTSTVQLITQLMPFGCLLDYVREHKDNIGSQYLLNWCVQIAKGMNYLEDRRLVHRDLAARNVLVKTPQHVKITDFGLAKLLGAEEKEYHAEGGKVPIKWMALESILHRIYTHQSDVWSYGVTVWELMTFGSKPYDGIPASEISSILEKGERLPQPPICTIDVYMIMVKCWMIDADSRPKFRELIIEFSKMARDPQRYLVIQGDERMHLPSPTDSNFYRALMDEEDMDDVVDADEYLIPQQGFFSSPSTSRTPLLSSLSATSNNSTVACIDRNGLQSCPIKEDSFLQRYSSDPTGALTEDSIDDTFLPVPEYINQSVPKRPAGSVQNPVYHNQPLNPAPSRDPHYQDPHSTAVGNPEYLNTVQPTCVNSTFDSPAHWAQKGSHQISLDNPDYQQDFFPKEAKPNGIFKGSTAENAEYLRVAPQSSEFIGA

In the case of C=CC(=O)N1CCC[C@@H](n2nc(-c3ccc(Oc4ccccc4)cc3)c3c(N)ncnc32)C1 [ibrutinib], the “effect on rituximab ADCC mediated by NK cells” value [1] is given as “antagonizes rituximab antibody-dependent cell mediated cytotoxicity (ADCC); also recorded: undesirably antagonizes rituximab ADCC effects”, the “effect on Treg development” value [2] is given as “strongly increases Treg development; also recorded: increase in Treg development” and the CYP substrate [3] is given as “substrate for both cytochrome P450 (CYP) enzymes 3A4/5 and 2D6”. For the same compound, the EC50 [4] was 0.0061 µM, the “effect on Th17 cells” value [5] was “strongly inhibits Thl7 cells; also recorded: profound inhibition” and the “GPVI platelet aggregation” value [6] was “significantly inhibits GPVI platelet aggregation”. The IC50 ([6]; Homo sapiens, Platelet) was 0.13 µM, the “EGFR inhibition” value [7] was “inhibits epidermal growth factor receptor (EGFR)” and the “effect on CD8+ T cell viability” value [8] was “strongly affects CD8 T cell viability at higher doses; also recorded: strong, negative effect”. The “percentage of CD56+/CD107a+ NK cells / antagonism” value [9] was “strong reduction” and the “ITK binding” value [10] was “irreversibly binds ITK”.

For “obinutuzumab: humanized monoclonal antibody directed against CD20”, the “MRD-negative complete response, number” value [11, 13] is given as 1, the response rate [11, 13] is given as 62% and the “patients with Grade 3 IRRs” value [11, 14] is given as 15%. The “patients with Grade 4 IRRs” value [11, 14] was “no Grade 4”, the “patients with IRRs, all grade” value [11, 14] was 100% and the “patients developing IRR” value ([11]; Phase 2 portion, relapsed/refractory CLL) was 95%. The “Grade 3 reactions among those” value ([11]; Phase 2 portion) was 25% and the “cases developing symptoms of hypotension” value ([11]; Phase 2 portion) was 60%.

With C=CC(=O)Nc1cccc(Nc2nc(Nc3ccc(OCCOC)cc3)ncc2F)c1 [CC-292] the “effect on human platelet-mediated thrombus formation” value [12] was “interfere with thrombus formation; also recorded: effect similar to ibrutinib”.
